Measurements as given in ChEMBL document CHEMBL5579891, “A Glycyrrhizin Derivative with a More Potent Inhibitory Activity against High-Mobility Group Box 1 Efficiently Discovered by Chemical Synthesis Inspired by the Bioconversion Products of an Endophytic Fungus Isolated from Licorice” (J Med Chem, 2024).
Activity calls are given as the source filed them. The rule behind the calls is not given here.

Columns and labels:
Peritoneal macrophage [1] = assay: Suppression of HMGB1-induced IL-1beta mRNA expression in male ddY mouse Peritoneal macrophage cells at 10 nM incubated for 2 hrs in presence of RU486 by qRT-PCR analysis; format: functional, cell-based
[2] = Solubility of compound at >10 uM; format: physicochemical
Mus musculus [3] = assay: Neuroprotective activity in male ddY mouse model of collagenase induced intracerebral hemorrhage assessed as rescue of ICH-induced neuronal loss by measuring increase in NeuN-positive neurons in periphery of […] at 100 mg/kg, po pretreated with collagenase for 20 mins followed by compound administration via oral gavage and measured at 24 hrs by immunohistochemical staining based analysis; format: functional, organism-based
Mus musculus [4] = assay: Effect on brain water content in cerebellum in male ddY mouse model of collagenase induced intracerebral hemorrhage at 100 mg/kg, po pretreated with collagenase for 20 mins followed by compound administration via oral gavage and measured at 24 hrs; format: functional, organism-based
Mus musculus [5] = assay: Effect on hematoma size in male ddY mouse model of collagenase induced intracerebral hemorrhage at 100 mg/kg, po pretreated with collagenase for 20 mins followed by compound administration via oral gavage and measured at 24 hrs; format: functional, organism-based
[6] = Drug uptake in brain of male ddY mouse model of collagenase induced intracerebral hemorrhage assessed as appearance of unchanged form of drug by measuring retention time at 100 mg/kg, po pretreated with collagenase for 20 mins followed by compound administration via oral gavage and measured at 24 hrs by LC-MS analysis; format: ADME, organism-based; details: in vivo
Peritoneal macrophage [7] = assay: Suppression of HMGB1-induced IL-1beta mRNA expression in male ddY mouse Peritoneal macrophage cells at 10 uM incubated for 2 hrs by qRT-PCR analysis; format: functional, cell-based
Peritoneal macrophage [8] = assay: Suppression of HMGB1-induced IL-1beta mRNA expression in male ddY mouse Peritoneal macrophage cells at 10 uM incubated for 2 hrs in presence of RU486 by qRT-PCR analysis; format: functional, cell-based
Mus musculus [9] = assay: Effect on brain water content in contralateral hemisphere in male ddY mouse model of collagenase induced intracerebral hemorrhage at 100 mg/kg, po pretreated with collagenase for 20 mins followed by compound administration via oral gavage and measured at 24 hrs; format: functional, organism-based
Mus musculus [10] = assay: (§1) In vivo inhibition of HMGB1 in male ddY mouse model of collagenase induced intracerebral hemorrhage assessed as reduction in AQP4 protein level at 100 mg/kg, po pretreated with collagenase for 20 mins followed by compound administration via oral gavage and measured at 24 hrs by Western blot analysis; format: functional, organism-based
Mus musculus [11] = assay: Suppression of IL-1beta mRNA expression in po dosed male ddY mouse model of collagenase induced intracerebral hemorrhage pretreated with collagenase for 20 mins followed by compound administration via oral gavage and measured at 24 hrs by qRT-PCR analysis; format: functional, organism-based; details: dose 50-100 mg/kg
Mus musculus [12] = assay: as §1, with “brain water content in ipsilateral hemisphere” for “AQP4 protein level”, “hrs” for “hrs by Western blot analysis”; format: functional, organism-based
RAW264.7 [13] = assay: Cytotoxicity against mouse RAW264.7 cells at 30 to 100 uM measured after 2 hrs by LDH assay; format: toxicity, cell-based; details: raw264.7, 2 h, dose 30-100 µM
RAW264.7 [14] = assay: Cytotoxicity against mouse RAW264.7 cells at 100 uM measured after 2 hrs by LDH assay; format: toxicity, cell-based; details: raw264.7, 2 h

Question: Which Activity (Peritoneal macrophage [1]) does the source give for C[C@]12CCC(=O)C=C1CC[C@@H]1[C@@H]2[C@@H](O)C[C@@]2(C)[C@H]1CC[C@]2(O)C(=O)CO here?
Answer: Its Activity is “inactive”.

Question: For COC(=O)[C@@]1(C)CC[C@]2(C)CC[C@]3(C)C(=CC(=O)[C@@H]4[C@@]5(C)CCC(=O)C(C)(C)[C@@H]5CC[C@]43C)[C@@H]2C1, which solubility [2] is on record?
Answer: Its solubility is “Insoluble”.

Question: And the Activity (Mus musculus [3])?
Answer: The Activity was “Active”.

Question: And the Activity (Mus musculus [4])?
Answer: Its Activity is “inactive”.

Question: What about the Activity (Mus musculus [5]) of the same compound?
Answer: The Activity was “inactive”.

Question: What about the Retention_time [6] of the same compound?
Answer: Its Retention_time is 11.3 min.

Question: What about the Activity (Peritoneal macrophage [7]) of the same compound?
Answer: Its Activity is “Active”.

Question: What about the Activity (Peritoneal macrophage [8]) of the same compound?
Answer: Its Activity is “Active”.

Question: And the Activity (Mus musculus [9])?
Answer: Its Activity is “inactive”.

Question: And the inhibition (Mus musculus [10])?
Answer: The inhibition was “Active”.

Question: What about the Activity (Mus musculus [11]) of the same compound?
Answer: The Activity was “Dose-Dependent Effect”.

Question: And the inhibition (Mus musculus [12])?
Answer: The inhibition was “Active”.

Question: For CC1(C)[C@@H](O)CC[C@]2(C)[C@H]3C(=O)C=C4[C@@H]5C[C@@](C)(C(=O)O)CC[C@]5(C)CC[C@@]4(C)[C@]3(C)CC[C@@H]12 [ENOXOLONE], which Activity (RAW264.7 [13]) is on record?
Answer: The Activity was “Toxic”.

Question: Which Activity (Peritoneal macrophage [7]) does the source give for CC1(C)[C@@H](O)CC[C@]2(C)[C@H]3C(=O)C=C4[C@@H]5C[C@@](C)(C(=O)O)CC[C@]5(C)C[C@H](O)[C@@]4(C)[C@]3(C)CC[C@@H]12 here?
Answer: Its Activity is “inactive”.

Question: Which Activity (Peritoneal macrophage [7]) does the source give for CC1(C)[C@@H](O[C@H]2O[C@H](C(=O)O)[C@@H](O)[C@H](O)[C@H]2O[C@@H]2O[C@H](C(=O)O)[C@@H](O)[C@H](O)[C@H]2O)CC[C@]2(C)[C@H]3C(=O)C=C4[C@@H]5C[C@@](C)(C(=O)O)CC[C@]5(C)CC[C@@]4(C)[C@]3(C)CC[C@@H]12 here?
Answer: The Activity was “Active”.

Question: For CC1(C)C(=O)CC[C@]2(C)[C@H]3C(=O)C=C4[C@@H]5C[C@@](C)(C(=O)O)CC[C@]5(C)CC[C@@]4(C)[C@]3(C)CC[C@@H]12, which Activity (RAW264.7 [14]) is on record?
Answer: The Activity was “Toxic”.

Question: With CC1(C)C(=O)CC[C@]2(C)[C@H]3C(=O)C=C4[C@@H]5C[C@@](C)(C(=O)O)CC[C@]5(C)C[C@H](O)[C@@]4(C)[C@]3(C)CC[C@@H]12 as the compound, how does the Activity (Peritoneal macrophage [7]) read?
Answer: The Activity was “inactive”.

Question: What about the Activity (RAW264.7 [14]) of the same compound?
Answer: Its Activity is “Toxic”.
